Test results as given in ChEMBL document CHEMBL5104152, “DNA-encoded library screening on two validated enzymes of the peptidoglycan biosynthetic pathway” (Bioorg Med Chem Lett, 2022).
Values belong to the compound of their own block, whether it stands above or below them.

Experiments:
[1] = target: UDP-N-acetylglucosamine 1-carboxyvinyltransferase (Escherichia coli K-12) (UniProt P0A749); assay: Inhibition of recombinant Escherichia coli MurA assessed as residual activity at 1 mM using UDP-N-acetylglucosamine as substrate incubated for 15 mins and measured by malachite green based colorimetric assay relative to control
UDP-N-acetylglucosamine 1-carboxyvinyltransferase (Escherichia coli K-12), sequence (P0A749 whole entry): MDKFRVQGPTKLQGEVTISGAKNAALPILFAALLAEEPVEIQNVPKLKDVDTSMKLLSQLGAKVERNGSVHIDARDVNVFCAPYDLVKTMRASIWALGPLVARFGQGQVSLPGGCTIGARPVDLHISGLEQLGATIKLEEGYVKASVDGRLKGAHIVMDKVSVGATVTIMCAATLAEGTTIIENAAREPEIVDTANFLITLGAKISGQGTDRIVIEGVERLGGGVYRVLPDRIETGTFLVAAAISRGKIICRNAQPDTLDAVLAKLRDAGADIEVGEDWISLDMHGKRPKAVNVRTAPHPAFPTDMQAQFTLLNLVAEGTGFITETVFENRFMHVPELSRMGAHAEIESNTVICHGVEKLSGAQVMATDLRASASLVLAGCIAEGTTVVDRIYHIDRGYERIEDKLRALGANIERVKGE

[2] = test system: Escherichia coli; assay: Antibacterial activity against Escherichia coli D22 incubated for 20 hrs and measured by broth microdilution method; assay type: functional
[3] = test system: Escherichia coli; assay: Antibacterial activity against Escherichia coli ATCC 25922 incubated for 20 hrs and measured by broth microdilution method; assay type: functional
[4] = target: UDP-N-acetylglucosamine 1-carboxyvinyltransferase (Escherichia coli K-12, UniProt P0A749); assay: Inhibition of recombinant Escherichia coli MurA using UDP-N-acetylglucosamine as substrate incubated for 15 mins and measured by malachite green based colorimetric assay
UDP-N-acetylglucosamine 1-carboxyvinyltransferase, sequence (P0A749 whole entry): as above

[5] = test system: Staphylococcus aureus; assay: Antibacterial activity against Staphylococcus aureus ATCC 29213 incubated for 20 hrs and measured by broth microdilution method; assay type: functional
[6] = test system: Escherichia coli; assay: Antibacterial activity against Escherichia coli N43 incubated for 20 hrs and measured by broth microdilution method; assay type: functional
[7] = target: D-alanine--D-alanine ligase B (Escherichia coli K-12) (UniProt P07862); assay: Inhibition of recombinant Escherichia coli DdlB assessed as residual activity at 1 mM using D-alanine as substrate incubated for 20 mins and measured by malachite green based colorimetric assay relative to control
[8] = target: D-alanine--D-alanine ligase B (Escherichia coli K-12) (UniProt P07862); assay: Inhibition of recombinant Escherichia coli DdlB assessed as residual activity at 20 uM using D-alanine as substrate incubated for 20 mins and measured by malachite green based colorimetric assay relative to control
[9] = target: D-alanine--D-alanine ligase B (Escherichia coli K-12) (UniProt P07862); assay: Inhibition of recombinant Escherichia coli DdlB assessed as residual activity at 100 uM using D-alanine as substrate incubated for 20 mins and measured by malachite green based colorimetric assay relative to control
[10] = target: UDP-N-acetylglucosamine 1-carboxyvinyltransferase (Escherichia coli K-12) (UniProt P0A749); assay: Inhibition of recombinant Escherichia coli MurA assessed as residual activity at 0.1 mM using UDP-N-acetylglucosamine as substrate incubated for 15 mins and measured by malachite green based colorimetric assay relative to control
[11] = target: D-alanine--D-alanine ligase B (Escherichia coli K-12) (UniProt P07862); assay: Inhibition of recombinant Escherichia coli DdlB assessed as residual activity at 500 uM using D-alanine as substrate incubated for 20 mins and measured by malachite green based colorimetric assay relative to control
[12] = target: D-alanine--D-alanine ligase B (Escherichia coli K-12, UniProt P07862); assay: Inhibition of recombinant Escherichia coli DdlB using D-alanine as substrate incubated for 20 mins and measured by malachite green based colorimetric assay
[13] = target: UDP-N-acetylglucosamine 1-carboxyvinyltransferase (Escherichia coli K-12) (UniProt P0A749); assay: Inhibition of recombinant Escherichia coli MurA assessed as residual activity at 0.5 mM using UDP-N-acetylglucosamine as substrate incubated for 15 mins and measured by malachite green based colorimetric assay relative to control

Activity [1]: 77.3%
Structure (SMILES): O=C(O)c1cc(-c2ccc3c(c2)OCCO3)nc2ccccc12

Activity [1]: 79.3%
Structure (SMILES): O=C(O)c1cc(-c2ccc(Cl)cc2)nc2ccccc12

Activity [1]: 72.9%
Structure (SMILES): O=C(O)c1cc(-c2cccc(O)c2)nc2ccccc12

Activity [1]: 86.3%
Structure (SMILES): O=C(O)c1cc(-c2ccccc2)nc2ccc(Cl)cc12

Activity [1]: 68%
Structure (SMILES): O=C(O)c1cc(-c2ccco2)nc2ccccc12

Activity [1]: 66.6%
Structure (SMILES): O=C(O)c1cc(-c2ccc(O)cc2)nc2ccccc12

Activity [1]: 82.4%
Structure (SMILES): O=C(O)c1cc(-c2cccc(Cl)c2)nc2ccccc12

Activity [1]: 58.8%
Structure (SMILES): O=C(O)c1cc(-c2ccccc2Cl)nc2ccccc12

Activity [1]: 77.5%
Structure (SMILES): O=C(O)c1cc(-c2ccccc2O)nc2ccccc12

MIC [2]: 128 µg/mL | MIC [3]: > 128 µg/mL | IC50 [4]: 172 µM | MIC [5]: 128 µg/mL | MIC [6]: > 128 µg/mL
Structure (SMILES): O=C(O)c1cc(-c2ccc(-c3ccccc3)cc2)nc2ccccc12

Activity [1]: 92.6%
Structure (SMILES): COC(=O)c1cc(-c2ccccc2)nc2ccccc12

Activity [1]: 95.2%
Structure (SMILES): O=C(O)c1cc(-c2ccccc2)nc2c(Cl)cccc12

Activity [1]: 101%
Structure (SMILES): O=C(O)c1cc(-c2ccccc2)nc2cc(Cl)ccc12

Activity [10]: 98.3%
Structure (SMILES): O=C(O)c1cc(-c2ccc(C3CCCCC3)cc2)nc2ccccc12

Activity [13]: 82.6%
Structure (SMILES): CC(=O)Nc1ccc(-c2cc(C(=O)O)c3ccccc3n2)cc1

Second part, the compound before the results:

Structure (SMILES): O=C(O)c1c(-c2ccccc2)c(-c2ccccc2)nc2ccccc12
Activity [1]: 85.2%

Structure (SMILES): CNC(=O)[C@@H](Cc1cn(C(=O)OC(C)(C)C)c2ccccc12)NCc1ccc(-n2ccnc2)c(-c2ccc(-c3cc(C(=O)O)c4ccccc4n3)cc2)c1
MIC [2]: > 128 µg/mL | MIC [3]: > 128 µg/mL | IC50 [4]: 14.1 µM | MIC [5]: > 128 µg/mL | MIC [6]: > 128 µg/mL

Structure (SMILES): COc1ccc(-c2cc[nH]n2)cc1
Activity [7]: 92.9%

Structure (SMILES): CNC(=O)[C@@H](Cc1c[nH]c2ccccc12)NCc1ccc(-n2ccnc2)c(-c2ccc(-c3cc(C(=O)O)c4ccccc4n3)cc2)c1
IC50 [4]: 15.5 µM

Structure (SMILES): CNC(=O)[C@H]1CCCC[C@H]1NC(=O)c1nsc2ccc(-c3cc(F)cc(F)c3)cc12
Activity [8]: 106%

Structure (SMILES): COc1ccc(-c2[nH]ncc2CN)cc1
Activity [7]: 58.6%

Structure (SMILES): CNC(=O)[C@@H]1[C@@H](C)OC(C)(C)N1C(=O)[C@@H](NC(=O)c1nsc2ccc(-c3cc(F)cc(F)c3)cc12)C(C)C
Activity [8]: 103%

Structure (SMILES): Cc1c[nH]c2ccc(F)cc12
Activity [7]: 108%

Structure (SMILES): CNC(=O)C(N)Cc1c[nH]c2ccccc12 (configuration not stated)
Activity [1]: 95.3%

Structure (SMILES): CNC(=O)C[C@H](C)NC(=O)c1nsc2ccc(-c3cc(F)cc(F)c3)cc12
Activity [9]: 87%

Structure (SMILES): CCN(CC)C(=O)c1ccc(-c2cc3nc[nH]c3nc2C(=O)N[C@@H](Cc2ccccc2F)C(=O)NC)cc1
Activity [11]: 81%

Structure (SMILES): O=C(O)CCc1c[nH]c2ccc(F)cc12
Activity [7]: 94.2%

Structure (SMILES): O=C(O)c1cc(-c2ccc(-c3ccc([N+](=O)[O-])cc3)cc2)nc2ccc(Br)cc12
Activity [10]: 100%

Structure (SMILES): CC[C@H](C)[C@@H](CCC(=O)NC)NC(=O)[C@H](Cc1c[nH]c2ccc(F)cc12)NC(=O)[C@H](CCC(C)C)NCc1cnn(C)c1-c1ccc(OC)cc1
MIC [2]: > 250 µM | MIC [3]: > 250 µM | IC50 [12]: 243 µM | MIC [5]: > 250 µM | MIC [6]: > 250 µM

Structure (SMILES): O=C(O)c1cc(-c2ccc(/C=C/c3ccccc3)cc2)nc2ccccc12
MIC [2]: 32 µg/mL | MIC [3]: > 128 µg/mL | IC50 [4]: 78.3 µM | MIC [5]: 64 µg/mL | MIC [6]: > 128 µg/mL

Structure (SMILES): NC(Cc1c[nH]c2ccc(F)cc12)C(=O)O (configuration not stated)
Activity [7]: 92.5%
